Test results: ChEMBL document CHEMBL1201862, “PubChem BioAssay data set” (2004)
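Grown in 96-well plates, cells were treated for 48 hours with each compound at five concentrations. Insufficient inhibition: endpoint recorded as highest concentration tested. GI50 marks 50% less growth.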 Activity calls are given as the source filed them. No stated cut-off is given here; in the data, active = GI50 up to about 1.1 µM and inactive = higher.

Legend:
Assay in all cases: DTP human tumour cell line panel, 48 h
EKVX = system: EKVX
UO-31 = system: UO-31
PC-3 = system: PC-3
UACC-62 = system: UACC-62
SR = system: SR
Malme-3M = system: Malme-3M
COLO 205 = system: COLO 205
CAKI-1 = system: CAKI-1
MCF7 = system: MCF7
SK-OV-3 = system: SK-OV-3
SK-MEL-5 = system: SK-MEL-5
RXF 393 = system: RXF 393
KM12 = system: KM12
SNB-75 = system: SNB-75
K562 = system: K562
HT-29 = system: HT-29
MDA-MB-435 = system: MDA-MB-435
HCT-15 = system: HCT-15
HOP-62 = system: HOP-62
BT-549 = system: BT-549

Structure (SMILES) | GI50 (EKVX) | GI50 (UO-31) | GI50 (PC-3) | GI50 (UACC-62) | GI50 (SR) | GI50 (Malme-3M) | GI50 (COLO 205) | GI50 (CAKI-1) | GI50 (MCF7) | GI50 (SK-OV-3) | GI50 (SK-MEL-5) | GI50 (RXF 393) | GI50 (KM12) | GI50 (SNB-75) | GI50 (K562) | GI50 (HT-29) | GI50 (MDA-MB-435) | GI50 (HCT-15) [µM] | GI50 (HOP-62) | GI50 (BT-549)
C=C1c2nc3ccccc3n2C=C(c2ccc(OC)cc2)N1c1ccc(OCCN2CCCCC2)cc1 | 40.9 µM (inactive) | 8.22 µM (inactive) | 15.2 µM (inactive) | 20.7 µM (inactive) | 4.44 µM (inactive) | > 48.4 µM (inactive) | 18.7 µM (inactive) | 13.4 µM (inactive) | 9.16 µM (inactive) | 49.1 µM (inactive) | 7.45 µM (inactive) | 27.6 µM (inactive) | 8 µM (inactive) | 50.5 µM (inactive) | 4.83 µM (inactive) | 20 µM (inactive) | 8.69 µM (inactive) | 4.74 | 35.6 µM (inactive) | 11.7 µM (inactive)
Clc1ccccc1/C=C/c1ccnc2ccccc12 | 5.48 µM (inactive) | 17.3 µM (inactive) | 16.4 µM (inactive) | 15.2 µM (inactive) | 17 µM (inactive) | 19.5 µM (inactive) | 13.8 µM (inactive) | 16.9 µM (inactive) | 11.6 µM (inactive) | 18.5 µM (inactive) | 15.1 µM (inactive) | 16.5 µM (inactive) | 17.4 µM (inactive) | 15.6 µM (inactive) | 15.9 µM (inactive) | 16 µM (inactive) | 15.8 µM (inactive) | 13.9 | 16.9 µM (inactive) | 14.6 µM (inactive)
Nc1nc(N)c(C2=CCNCC2)c(=O)[nH]1 | > 100 µM (inactive) | > 100 µM (inactive) | > 100 µM (inactive) | > 100 µM (inactive) | > 100 µM (inactive) | > 100 µM (inactive) | > 100 µM (inactive) | > 100 µM (inactive) | > 100 µM (inactive) | > 100 µM (inactive) | > 100 µM (inactive) | > 100 µM (inactive) | > 100 µM (inactive) | > 100 µM (inactive) | > 100 µM (inactive) | > 100 µM (inactive) | > 100 µM (inactive) | > 100 | > 100 µM (inactive) | > 100 µM (inactive)
CC1C(=O)O[B-]2(c3ccccc3)Oc3ccccc3C=[N+]12 (stereo not given) | > 100 µM (inactive) | > 100 µM (inactive) | > 100 µM (inactive) | > 100 µM (inactive) | > 100 µM (inactive) | > 100 µM (inactive) | > 100 µM (inactive) | > 100 µM (inactive) | 61.2 µM (inactive) | > 100 µM (inactive) | > 100 µM (inactive) | > 100 µM (inactive) | > 100 µM (inactive) | 72.1 µM (inactive) | > 100 µM (inactive) | > 100 µM (inactive) | > 100 µM (inactive) | > 100 | > 100 µM (inactive) | > 100 µM (inactive)
